Results published in patent US20230202985A1, “Indoles, Indazoles, and Related Analogs for Inhibiting YAP/TAZ-TEAD” (THE KATHOLIEKE UNIVERSITEIT LEUVEN, priority 2021, published 2023).

System: YAP/TAZ-TEAD transcription
Assay: Reporter gene assay for measuring the inhibition of YAP/TAZ-TEAD transcription (TEAD-responsive element luciferase reporter in Hek293T cells)
Type: cell-based
Conditions: Homo sapiens, HEK-293T; Hek293T cells transfected with TEAD-responsive luciferase reporter, 24 hours incubation
Experimental: Hek293T cells are cultured in DMEM supplemented with 10% fetal bovine serum, Sodium pyruvate, Sodium bicarbonate, L-glutamine. The cells are harvested and transiently transfected with TEAD-responsive element luciferase reporter. Transfected cells are plated in 384-wells plate containing pre-diluted compounds. After 24 hours incubation at 37° C./5% CO2, assay plates were cooled down to RT and levelled to an equal volume per well, prior to the addition of 25 uL luciferase substrate SteadyLite (Perkin Elmer)/well. The plate was shaken for 10 min at 600 rpm, centrifuged for 1 min at 500 rpm and measured with an Envision reader (PerkinElmer). The amount of relative light units produced by the TEAD reporter is used to calculated percent of inhibition.
The percent of reporter inhibition was calculated in the presence of a positive control inhibitor (100% inhibition) versus a condition with the presence of the vehicle basal activity of the reporter (0% inhibition). The ability of a test compound to inhibit this activity was determined as:
Percentage inhibition=[1−((RLU determined in the presence of vehicle−RLU determined for sample with test compound present) divided by (RLU determined in the presence of vehicle−RLU determined for sample with positive control inhibitor))]*100
The activities of example compounds tested are depicted in Table 6. The activity ranges A, B and C refer to IC50 values in the reporter gene assay as follows: “A”: IC50<1 μM; “B”: 1 μM≤IC50≤20 μM and “C”: IC50>20 μM; NT=not tested.

Structure (SMILES) | EC50 [µM]
C=CC(=O)NCc1nn(-c2ccc(C(F)(F)F)cc2)c2ccc(Oc3cc(=O)[nH]c(=O)n3C)cc12 [compound 51, N-[[5-(3-methyl-2,6-dioxo-pyrimidin-4-yl)oxy-1-[4-(trifluoromethyl)phenyl]indazol-3-yl]methyl]prop-2-enamide] | < 1
C=CC(=O)Nc1cn(-c2ccc(C(C)C)cc2)c2ccccc12 [compound 23, N-(1-(4-isopropylphenyl)-1H-indol-3-yl)acrylamide] | < 1
C#CCOc1ccc2c(c1)c(CNS(C)(=O)=O)nn2-c1ccc(C(F)(F)F)cc1 [compound 65, N-[[5-prop-2-ynoxy-1-[4-(trifluoromethyl)phenyl]indazol-3-yl]methyl]methanesulfonamide] | > 20
O=C(NS(=O)(=O)C1CC1)c1nn(-c2ccc(C(F)(F)F)cc2)c2ccccc12 [compound 14, N-(cyclopropylsulfonyl)-1-(4-(trifluoromethyl)phenyl)-1H-indazole-3-carboxamide] | > 20
Cn1c(Oc2ccc3c(c2)c(CNS(C)(=O)=O)nn3-c2ccc(C(F)(F)F)cc2)cc(=O)[nH]c1=O [compound 60, N-[[5-(3-methyl-2,6-dioxo-pyrimidin-4-yl)oxy-1-[4-(trifluoromethyl)phenyl]indazol-3-yl]methyl]methanesulfonamide] | > 20
CN(C)S(=O)(=O)NCc1nn(-c2ccc(C(F)(F)F)cc2)c2ccccc12 [compound 13, N,N-dimethyl-N′-((1-(4-(trifluoromethyl)phenyl)-1H-indazol-3-yl)methyl)sulfamide] | 1 to 20
CCC(=O)NCc1cn(-c2ccc(C(F)(F)F)cc2)c2ccccc12 [compound 28, N-((1-(4-(trifluoromethyl)phenyl)-1H-indol-3-yl)methyl)propionamide] | 1 to 20
O=C(O)Cc1cn2cc(-c3ccccc3)cc(-c3cnn(Cc4cccnc4)c3)c2n1 [compound 36, 2-(6-phenyl-8-(1-(pyridin-3-ylmethyl)-1H-pyrazol-4-yl)imidazo[1,2-a]pyridin-2-yl)acetic acid] | > 20
C=CC(=O)NCc1nn(-c2ccc(C(F)(F)F)cc2)c2ccncc12 [compound 41, N-((1-(4-(trifluoromethyl)phenyl)-1H-pyrazolo[4,3-c]pyridin-3-yl)methyl)acrylamide] | < 1
C=CC(=O)NCc1cc2ccccc2n1Cc1cccc(C(F)(F)F)c1 [compound 32, N-((1-(3-(trifluoromethyl)benzyl)-1H-indol-2-yl)methyl)acrylamide] | < 1
CCC(=O)NCc1nn(-c2ccc(C(F)(F)F)cc2)c2ccc(OCc3ccccc3)cc12 [compound 55, N-[[5-benzyloxy-1-[4-(trifluoromethyl)phenyl]indazol-3-yl]methyl]propanamide] | > 20
CS(=O)(=O)NCc1nn(-c2ccc(C(F)(F)F)cc2)c2ccc(OCC#N)cc12 [compound 42, N-[[5-(cyanomethoxy)-1-[4-(trifluoromethyl)phenyl]indazol-3-yl]methyl]methanesulfonamide] | > 20
CS(=O)(=O)NCc1nn(-c2ccc(C(F)(F)F)cc2)c2ccc(C(F)(F)F)cc12 [compound 73, N-[[5-(trifluoromethyl)-1-[4-(trifluoromethyl)phenyl]indazol-3-yl]methyl]methanesulfonamide] | 1 to 20
CCC(=O)NCc1nn(-c2ccc(C(F)(F)F)cc2)c2ccccc12 [compound 2, N-((1-(4-(trifluoromethyl)phenyl)-1H-indazol-3-yl)methyl)propionamide] | 1 to 20
CS(=O)(=O)NCc1nn(-c2ccc(C(F)(F)F)cc2)c2cc(C(F)(F)F)ccc12 [compound 76, N-[[6-(trifluoromethyl)-1-[4-(trifluoromethyl)phenyl]indazol-3-yl]methyl]methanesulfonamide] | 1 to 20
CCC(=O)NCc1cc2ccccc2n1-c1ccc(C(F)(F)F)cc1 [compound 30, N-((1-(4-(trifluoromethyl)phenyl)-1H-indol-2-yl)methyl)propionamide] | > 20
CS(=O)(=O)NCc1nn(-c2ccc(OC(F)(F)F)cc2)c2ccccc12 [compound 6, N-((1-(4-(trifluoromethoxy)phenyl)-1H-indazol-3-yl)methyl)methanesulfonamide] | 1 to 20
CCC(=O)NCc1nn(-c2ccc(C(F)(F)F)cc2)c2ccc(Oc3cc(=O)[nH]c(=O)n3C)cc12 [compound 53, N-[[5-(3-methyl-2,6-dioxo-pyrimidin-4-yl)oxy-1-[4-(trifluoromethyl)phenyl]indazol-3-yl]methyl]propanamide] | > 20
CS(=O)(=O)NCc1nn(-c2ccc(C(F)(F)F)cc2)c2ccc(OCC3CCOC3)cc12 (racemic) [compound 44, N-[[5-[[rac-tetrahydrofuran-3-yl]methoxy]-1-[4-(trifluoromethyl)phenyl]indazol-3-yl]methyl]methanesulfonamide] | 1 to 20

Structure (SMILES) | EC50 [µM]
CNC(=O)c1nn(-c2ccc(C(F)(F)F)cc2)c2ccccc12 [compound 8, N-methyl-1-(4-(trifluoromethyl)phenyl)-1H-indazole-3-carboxamide] | > 20
Cn1ccc(-c2cc(-c3ccccc3)cn3cc(CC(=O)O)nc23)n1 [compound 35, 2-(8-(1-methyl-1H-pyrazol-3-yl)-6-phenylimidazo[1,2-a]pyridin-2-yl)acetic acid] | > 20
CS(=O)(=O)NC(=O)c1nn(-c2ccc(C(F)(F)F)cc2)c2ccccc12 [compound 12, N-(methylsulfonyl)-1-(4-(trifluoromethyl)phenyl)-1H-indazole-3-carboxamide] | 1 to 20
O=S(=O)(NCc1nn(-c2ccc(C(F)(F)F)cc2)c2ccccc12)C1CC1 [compound 11, N-((1-(4-(trifluoromethyl)phenyl)-1H-indazol-3-yl)methyl)cyclopropanesulfonamide] | 1 to 20
Cn1ccc(-c2cc(Nc3ccccc3)cn3cc(CC(=O)O)nc23)n1 [compound 38, 2-(8-(1-methyl-1H-pyrazol-3-yl)-6-(phenylamino)imidazo[1,2-a]pyridin-2-yl)acetic acid] | > 20
O=C1OCCN1Cc1nn(-c2ccc(C(F)(F)F)cc2)c2ccccc12 [compound 18, 3-((1-(4-(trifluoromethyl)phenyl)-1H-indazol-3-yl)methyl)oxazolidin-2-one] | < 1
O=S1(=O)CCCN1Cc1nn(-c2ccc(C(F)(F)F)cc2)c2ccccc12 [compound 7, 2-((1-(4-(trifluoromethyl)phenyl)-1H-indazol-3-yl)methyl)isothiazolidine 1,1-dioxide] | 1 to 20
CNC(=O)Cc1cn2cc(Nc3ccccc3)cc(-c3ccn(C)n3)c2n1 [compound 39, N-methyl-2-(8-(1-methyl-1H-pyrazol-3-yl)-6-(phenylamino)imidazo[1,2-a]pyridin-2-yl)acetamide] | > 20
CC(=O)NCc1nn(-c2ccc(C(F)(F)F)cc2)c2ccc(C(F)(F)F)cc12 [compound 72, N-[[5-(trifluoromethyl)-1-[4-(trifluoromethyl)phenyl]indazol-3-yl]methyl]acetamide] | 1 to 20
CNC(=O)Cc1cn2cc(-c3ccccc3)cc(-c3ccn(C)n3)c2n1 [compound 37, N-methyl-2-(8-(1-methyl-1H-pyrazol-3-yl)-6-phenylimidazo[1,2-a]pyridin-2-yl)acetamide] | > 20
CCC(=O)NCc1nn(-c2ccc(OC(F)(F)F)cc2)c2ccccc12 [compound 5, N-((1-(4-(trifluoromethoxy)phenyl)-1H-indazol-3-yl)methyl)propionamide] | 1 to 20
CS(=O)(=O)NCc1nn(-c2ccc(C(F)(F)F)cc2)c2ccc(OCc3cc[nH]n3)cc12 [compound 52, N-[[5-(1H-pyrazol-3-ylmethoxy)-1-[4-(trifluoromethyl)phenyl]indazol-3-yl]methyl]methanesulfonamide] | 1 to 20
Cn1cc(S(=O)(=O)NCc2nn(-c3ccc(C(F)(F)F)cc3)c3ccccc23)cn1 [compound 9, 1-methyl-N-((1-(4-(trifluoromethyl)phenyl)-1H-indazol-3-yl)methyl)-1H-pyrazole-4-sulfonamide] | > 20
C=C(CNc1nn(-c2ccc(C(F)(F)F)cc2)c2ccccc12)C(=O)O [compound 70, 2-[[[1-[4-(trifluoromethyl)phenyl]indazol-3-yl]amino]methyl]prop-2-enoic acid] | < 1
CS(=N)(=O)NCc1nn(-c2ccc(C(F)(F)F)cc2)c2ccccc12 (stereo not shown) [compound 16, N-((1-(4-(trifluoromethyl)phenyl)-1H-indazol-3-yl)methyl)methanesulfonimidamide] | 1 to 20
CC(=O)NC1C(=O)N(c2ccc(C(F)(F)F)cc2)c2ccccc21 (stereo not shown) [compound 34, N-(2-oxo-1-(4-(trifluoromethyl)phenyl)indolin-3-yl)acetamide] | > 20
C=CC(=O)Nc1cn(-c2ccc(-c3ccccc3)cc2)c2ccccc12 [compound 26, N-(1-([1,1′-biphenyl]-4-yl)-1H-indol-3-yl)acrylamide] | < 1
O=C(NCC(O)CO)c1nn(-c2ccc(C(F)(F)F)cc2)c2ccccc12 (stereo not shown) [compound 15, N-(2,3-dihydroxypropyl)-1-(4-(trifluoromethyl)phenyl)-1H-indazole-3-carboxamide] | 1 to 20
